Measured values as given in patent US9227919B2, “Arylalkylamine compounds as calcium sensing receptor modulators” (Lupin Limited, priority 2012, dated 2016).
pEC50: −log10 of the molar value. Counter-ions that a name gives are not always drawn.

Biological target: T1, Calcium Sensing Receptor (CaSR) (Homo sapiens, UniProt P41180)
T1 construct: expressed in transfected cells
T1 sequence (P41180 20-1078): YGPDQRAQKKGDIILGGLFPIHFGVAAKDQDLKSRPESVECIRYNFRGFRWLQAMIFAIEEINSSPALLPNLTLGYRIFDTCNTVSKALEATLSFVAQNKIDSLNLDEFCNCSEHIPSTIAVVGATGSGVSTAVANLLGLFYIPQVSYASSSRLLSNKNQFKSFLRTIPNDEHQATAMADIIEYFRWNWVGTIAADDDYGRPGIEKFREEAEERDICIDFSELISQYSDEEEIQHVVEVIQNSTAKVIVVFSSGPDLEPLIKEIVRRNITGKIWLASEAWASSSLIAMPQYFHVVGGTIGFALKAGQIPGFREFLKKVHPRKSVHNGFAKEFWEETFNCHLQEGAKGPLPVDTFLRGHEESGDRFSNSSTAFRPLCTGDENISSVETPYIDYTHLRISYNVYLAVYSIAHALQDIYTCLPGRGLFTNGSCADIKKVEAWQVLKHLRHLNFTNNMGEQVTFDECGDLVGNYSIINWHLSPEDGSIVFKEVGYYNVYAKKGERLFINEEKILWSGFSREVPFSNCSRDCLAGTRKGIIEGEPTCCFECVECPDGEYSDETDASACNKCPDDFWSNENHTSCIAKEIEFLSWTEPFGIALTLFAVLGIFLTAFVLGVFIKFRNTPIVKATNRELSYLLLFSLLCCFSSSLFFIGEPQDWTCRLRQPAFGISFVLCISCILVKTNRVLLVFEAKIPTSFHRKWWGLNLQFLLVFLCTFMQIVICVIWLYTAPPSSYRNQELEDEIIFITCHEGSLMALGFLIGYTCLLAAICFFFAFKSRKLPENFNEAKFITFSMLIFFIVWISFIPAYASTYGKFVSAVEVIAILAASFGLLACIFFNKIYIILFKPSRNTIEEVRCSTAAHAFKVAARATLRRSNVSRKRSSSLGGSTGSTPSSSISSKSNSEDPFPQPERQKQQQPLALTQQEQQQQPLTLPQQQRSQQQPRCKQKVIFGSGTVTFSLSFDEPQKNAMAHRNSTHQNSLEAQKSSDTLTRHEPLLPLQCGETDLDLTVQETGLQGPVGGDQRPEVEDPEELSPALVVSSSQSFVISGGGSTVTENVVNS
Assay: In-vitro assay of calcimimetics through modulation of Calcium Sensing Receptor (intracellular calcium increase, FLIPR)
Format: cell-based
Conditions: stably transfected HEK293 cells expressing hCaSR; Fluo4NW dye; 0.3 mM CaCl2; 8-point assay; read-out: EC50 Range
Description: Certain illustrative compounds within the scope of the invention are screened for CaSR activity according to the procedure given below. The screening of the compounds may also be carried by other methods and procedures known to skilled in the art.
In-vitro assay method of Calcimimetics through modulation of Calcium Sensing Receptor (CaSR):
The ability of the compounds to modulate Calcium sensing receptor is determined by measuring an increase in intracellular calcium [Ca^2+]i. Stably transfected HEK293 cells expressing hCaSR_pTriEx-3 hygro vector are developed. Cells are grown overnight on a 96-well plate to 80% confluency in Ham's F12 containing 20% FBS at 37° C., 5% CO2. Subsequently, cells are washed extensively with 20 mM HEPES buffer containing 126 mM […], 1 mM MgCl2 and 4 mM KCl to remove serum components that might interfere with the assay. Cells are loaded with calcium sensing Fluo4NW dye in HEPES base buffer containing 0.1% BSA and lmg/ml glucose for 30 minutes to measure changes in intracellular calcium. The activities of the compounds are measured in FLIPR using 0.3 mM CaCl2 in 20 mM HEPES base buffer. The effectiveness of the compound to modulate receptor activity is determined by calculating the EC50 responses for that compound in an 8-point assay and plotted using GraphPad Prism 5.
The compounds prepared were tested using the above assay procedure and the results obtained are given below.

SMILES	pEC50
Cc1ccc(N2CC(CCCN[C@H](C)c3cccc4ccccc34)Cc3ccccc32)cc1C(=O)O (single isomer, unassigned) [Example 78b, hydrochloride]	> 7.70
C[C@@H](NCC1Cc2ccccc2C(c2ccc(F)c(C(=O)O)c2)C1)c1cccc2ccccc12 (single isomer, unassigned) [Example 7c, hydrochloride]	7.30 to 7.70
C[C@@H](NCC1Cc2ccccc2C(c2cccc(C(=O)O)c2)C1)c1cccc2ccccc12 (single isomer, unassigned) [Example 2c, hydrochloride]	7.30 to 7.70
Cc1ccc(N2CC(CN[C@H](C)c3ccc(F)c4ccccc34)Cc3ccccc32)cc1C(=O)O (single isomer, unassigned) [Example 72b, hydrochloride]	7.30 to 7.70
Cc1ccc(N2C[C@@H](CN[C@H](C)c3cccc4ccccc34)Cc3ccccc32)cc1C(=O)O [Example 69a, 2-Methyl-5-(3-((((R)-1-(naphthalen-1-yl)ethyl)amino)methyl)-3,4-dihydroquinolin-1(2H)-yl)benzoic acid hydrochloride]	> 7.70
C[C@@H](NCC1Cc2ccccc2C(c2ccc(F)c(C(=O)O)c2)C1)c1cccc2ccccc12 (single isomer, unassigned) [Example 7b, hydrochloride]	> 7.70
Cc1ccc(C2CC(CN[C@H](C)c3cccc4ccccc34)Cc3ccccc32)cc1C(=O)O (single isomer, unassigned) [Example 8a, hydrochloride]	> 7.70
Cc1cc(C2C[C@H](CN[C@H](C)c3cccc4ccccc34)Cc3ccccc32)ccc1C(=O)O (single isomer, unassigned) [Example 13b, hydrochloride]	> 7.70
Cc1ccc(C2CC(CN[C@H](C)c3cccc4ccccc34)Cc3ccccc32)cc1C(=O)O (single isomer, unassigned) [Example 8c, hydrochloride]	6.70 to 7.30
Cc1ccc(C2CC(CN[C@H](C)c3cccc4ccccc34)Cc3ccccc32)c(C)c1C(=O)O (single isomer, unassigned) [Example 10a, hydrochloride]	> 7.70
Cc1ccc(C(=O)O)cc1C1C[C@H](CN[C@H](C)c2cccc3ccccc23)Cc2ccccc21 (single isomer, unassigned) [Example 14a, hydrochloride]	6.70 to 7.30
C[C@@H](NCC1Cc2ccccc2C(c2cccc(C(=O)O)c2)C1)c1cccc2ccccc12 (single isomer, unassigned) [Example 2a, hydrochloride]	> 7.70
Cc1ccc(N2CC(CN[C@H](C)c3cccc4ccccc34)Cc3cc(F)ccc32)cc1C(=O)O (single isomer, unassigned) [Example 75a, hydrochloride]	> 7.70
COc1cc([C@@H](C)NCC2Cc3ccccc3N(c3ccc(C)c(C(=O)O)c3)C2)ccc1F (single isomer, unassigned) [Example 73a, hydrochloride]	> 7.70
COc1cc([C@@H](C)NC[C@@H]2Cc3ccccc3C(c3ccc(C)c(C(=O)O)c3)C2)ccc1F (single isomer, unassigned) [Example 16a, hydrochloride]	> 7.70
Cc1ccc(C(=O)O)cc1N1CC(CN[C@H](C)c2cccc3ccccc23)Cc2ccccc21 (single isomer, unassigned) [Example 70b, hydrochloride]	6.70 to 7.30
Cc1ccc(C2C[C@H](CN[C@H](C)c3ccc(F)c4ccccc34)Cc3ccccc32)cc1C(=O)O (single isomer, unassigned) [Example 19a, hydrochloride]	> 7.70
Cc1ccc(C2CC(CN[C@H](C)c3cccc4ccccc34)Cc3ccccc32)cc1C(=O)O (single isomer, unassigned) [Example 8b, hydrochloride]	> 7.70
Cc1ccc(C2C[C@@H](CCCN[C@H](C)c3cccc4ccccc34)Cc3ccccc32)cc1C(=O)O (stereo partly drawn) [Example 31, 2-Methyl-5-((3R)-3-(3-(((R)-1-(naphthalen-1-yl)ethyl)amino)propyl)-1,2,3,4-tetrahydronaphthalen-1-yl)benzoic acid hydrochloride]	> 7.70
Cc1ccc(C2CC(N[C@H](C)c3cccc4ccccc34)Cc3ccccc32)cc1C(=O)O (stereo partly drawn) [Example 22, 2-Methyl-5-(3-(((R)-1-(naphthalen-1-yl)ethyl)amino)-1,2,3,4-tetrahydronaphthalen-1-yl)benzoic acid hydrochloride]	7.30 to 7.70

Results, then the molecule that gave them:

pEC50	SMILES
> 7.70	C[C@@H](NCC1Cc2ccccc2C(c2ccc(F)c(C(=O)O)c2)C1)c1cccc2ccccc12 (single isomer, unassigned) [Example 7a, hydrochloride]
> 7.70	COc1cc([C@@H](C)NC[C@@H]2Cc3ccccc3C(c3ccc(C)c(C(=O)O)c3C)C2)ccc1F (stereo partly drawn) [Example 17, 3-((3S)-3-((((R)-1-(4-Fluoro-3-methoxyphenyl)ethyl)amino)methyl)-1,2,3,4-tetrahydronaphthalen-1-yl)-2,6-dimethylbenzoic acid hydrochloride]
> 7.70	Cc1ccc(C2C[C@H](CCN[C@H](C)c3cccc4ccccc34)Cc3ccccc32)cc1C(=O)O (single isomer, unassigned) [Example 27a, hydrochloride]
7.30 to 7.70	COc1cc([C@@H](C)NC[C@@H]2Cc3ccccc3C(c3ccc(C)c(C(=O)O)c3)C2)ccc1F (single isomer, unassigned) [Example 16b, hydrochloride]
7.30 to 7.70	Cc1cc(C(=O)O)cc(C2CC(CN[C@H](C)c3cccc4ccccc34)Cc3ccccc32)c1 (single isomer, unassigned) [Example 9b, hydrochloride]
> 7.70	Cc1ccc(C(=O)O)cc1C1C[C@H](CN[C@H](C)c2cccc3ccccc23)Cc2ccccc21 (single isomer, unassigned) [Example 14b, hydrochloride]
7.30 to 7.70	Cc1ccc(N2CC(CCCN[C@H](C)c3cccc4ccccc34)Cc3ccccc32)cc1OCC(=O)O (single isomer, unassigned) [Example 80b, hydrochloride]
> 7.70	Cc1ccc(N2CC(CN[C@H](C)c3cccc4ccccc34)Cc3ccccc32)c(C)c1C(=O)O (single isomer, unassigned) [Example 71a, hydrochloride]
> 7.70	Cc1c(C(=O)O)cccc1N1CC(CCCN[C@H](C)c2ccc(F)c3ccccc23)Cc2ccccc21 (single isomer, unassigned) [Example 79a, hydrochloride]
7.30 to 7.70	Cc1cc(C2C[C@H](CN[C@H](C)c3cccc4ccccc34)Cc3ccccc32)ccc1C(=O)O (single isomer, unassigned) [Example 13a, hydrochloride]
6.70 to 7.30	Cc1cc(C(=O)O)cc(C2CC(CN[C@H](C)c3cccc4ccccc34)Cc3ccccc32)c1 (single isomer, unassigned) [Example 9c, hydrochloride]
> 7.70	Cc1ccc(C2C[C@H](CCCN[C@H](C)c3ccc(F)c4ccccc34)Cc3ccccc32)cc1C(=O)O (stereo partly drawn) [Example 29, 5-((3S)-3-(3-(((R)-1-(4-fluoronaphthalen-1-yl)ethyl)amino)propyl)-1,2,3,4-tetrahydronaphthalen-1-yl)-2-methylbenzoic acid hydrochloride]
7.30 to 7.70	Cc1ccc(C2C[C@H](CN[C@H](C)c3ccc(F)c4ccccc34)Cc3ccccc32)cc1C(=O)O (single isomer, unassigned) [Example 19b, hydrochloride]
